Assay [1] has as its system Streptococcus pneumoniae. Put plainly: Antibacterial activity against Streptococcus pneumoniae by NCCLS method. Format: functional.
In assay [2] the test system is Streptococcus pneumoniae. Put plainly: Antibacterial activity against Streptococcus pneumoniae 3579 expressing erm gene by NCCLS method. It counts as functional.
Assay [3] has as its system Moraxella catarrhalis. Put plainly: Antibacterial activity against Moraxella catarrhalis 8176 by NCCLS method. It counts as functional.
The test system of assay [4] is Streptococcus pyogenes. Put plainly: Antibacterial activity against Streptococcus pyogenes 19615 by NCCLS method. It counts as functional.
Assay [5] has as its system Haemophilus influenzae. Put plainly: Antibacterial activity against Haemophilus influenzae 38 by NCCLS method. It counts as functional.
The test system of assay [6] is Streptococcus pneumoniae. Nature of the assay: Antibacterial activity against Streptococcus pneumoniae 994 expressing mef gene by NCCLS method. It counts as functional.
Assay [7] concerns Streptococcus pneumoniae. Put plainly: Antibacterial activity against Streptococcus pneumoniae 49619 by NCCLS method. It counts as functional.
In assay [8] the test system is Streptococcus pneumoniae. Put plainly: Antibacterial activity against Streptococcus pneumoniae 6303 by NCCLS method. Format: functional.
Assay [9] has as its system Streptococcus pneumoniae. Put plainly: Antibacterial activity against telethromycin-resistant Streptococcus pneumoniae 217 expressing erm gene by NCCLS method. Format: functional.
Assay [10] has as its system Streptococcus pneumoniae. Put plainly: Antibacterial activity against telethromycin-resistant Streptococcus pneumoniae 3489 expressing erm gene by NCCLS method. It counts as functional.
In assay [11] the test system is Streptococcus pneumoniae. Put plainly: Antibacterial activity against telethromycin-resistant Streptococcus pneumoniae 757 expressing erm gene by NCCLS method. It counts as functional.
Assay [12] relates to Streptococcus pneumoniae. Put plainly: Antibacterial activity against telethromycin-resistant Streptococcus pneumoniae 3488 expressing erm gene by NCCLS method. It counts as functional.
The test system of assay [13] is Streptococcus pneumoniae. Put plainly: Antibacterial activity against telethromycin-resistant Streptococcus pneumoniae 162 expressing erm gene by NCCLS method. Format: functional.
Assay [14] concerns Streptococcus pneumoniae. Put plainly: Antibacterial activity against telethromycin-resistant Streptococcus pneumoniae 3390 expressing erm gene by NCCLS method. It counts as functional.
Assay [15] deals with Streptococcus pneumoniae. Nature of the assay: Antibacterial activity against telethromycin-resistant Streptococcus pneumoniae 5051 expressing erm gene by NCCLS method. Format: functional.
Assay [16] deals with Streptococcus pneumoniae. Nature of the assay: Antibacterial activity against telethromycin-resistant Streptococcus pneumoniae 3271 expressing erm gene by NCCLS method. It counts as functional.
Assay [17] relates to Streptococcus pneumoniae. Put plainly: Antibacterial activity against telethromycin-resistant Streptococcus pneumoniae 5099 expressing erm gene by NCCLS method. It counts as functional.
For assay [18], the system named is Streptococcus pneumoniae. Put plainly: Antibacterial activity against telethromycin-resistant Streptococcus pneumoniae 2840 expressing erm gene by NCCLS method. Format: functional.
For assay [19], the system named is Streptococcus pneumoniae. Put plainly: Antibacterial activity against telethromycin-resistant Streptococcus pneumoniae B739 expressing erm gene by NCCLS method. Format: functional.
Assay [20] has as its system Streptococcus pneumoniae. Nature of the assay: Antibacterial activity against Streptococcus pneumoniae 3579 expressing erm gene infected in mouse systemic infection model. Format: functional, organism-based.
In assay [21] the test system is Streptococcus pneumoniae. Put plainly: Antibacterial activity against telethromycin-resistant Streptococcus pneumoniae AB14 expressing erm gene by NCCLS method. Format: functional.

Converted amounts (≈) assume the structure as drawn. The source made the active and inactive calls. No cut-off for these calls is given here.

For the molecule `CC[C@H]1OC(=O)[C@H](C)[C@@H](O[C@H]2C[C@@](C)(OC)[C@@H](O)[C@H](C)O2)[C@H](C)[C@@H](O[C@@H]2O[C@H](C)C[C@H](N(C)C)[C@H]2O)[C@](C)(O)C[C@@H](C)C(=O)[C@H](C)[C@@H](O)[C@]1(C)O` [ERYTHROMYCIN], the MIC in [1] was 0.25 µg/mL (≈ 0.341 µM); in [2], 8 µg/mL (≈ 10.9 µM); in [3] it was 8 µg/mL (≈ 10.9 µM); in [4], 0.015 µg/mL (≈ 0.0204 µM); in assay [5], over 16 µg/mL; in assay [6], 0.5 µg/mL (≈ 0.681 µM). In addition, the MIC in [7] stood at 0.125 µg/mL (≈ 0.17 µM); in [8], 0.25 µg/mL (≈ 0.341 µM).

On to `C=CCN(C)[C@H]1C[C@@H](C)O[C@@H](O[C@@H]2[C@@H](C)[C@H](OC(=O)Cc3ccccn3)[C@@H](C)C(=O)O[C@H](CC)[C@@]3(C)OC(=O)N(CCCCn4cncc4-c4ccco4)[C@@H]3[C@@H](C)C(=O)[C@H](C)C[C@@]2(C)OC)[C@@H]1O`, for which the MIC in [9] turned out to be 0.5 µg/mL (≈ 0.527 µM); in assay [10], 1 µg/mL (≈ 1.05 µM); in [2], 0.25 µg/mL (≈ 0.264 µM); in [11] it was 0.5 µg/mL (≈ 0.527 µM); in assay [3], 0.125 µg/mL (≈ 0.132 µM); in assay [4] it was 0.015 µg/mL (≈ 0.0158 µM). Besides, the MIC in assay [12] was determined as 0.25 µg/mL (≈ 0.264 µM); in assay [6], 0.06 µg/mL (≈ 0.0633 µM); in assay [7] it was 0.015 µg/mL (≈ 0.0158 µM); in assay [13] it was 2 µg/mL (≈ 2.11 µM); in [14], 0.25 µg/mL (≈ 0.264 µM); in assay [15], 0.25 µg/mL (≈ 0.264 µM). The MIC in assay [16] stood at 1 µg/mL (≈ 1.05 µM); in [17], 0.125 µg/mL (≈ 0.132 µM); in assay [18], 1 µg/mL (≈ 1.05 µM); in assay [19] it was 1 µg/mL (≈ 1.05 µM); in assay [21], 0.125 µg/mL (≈ 0.132 µM); in assay [8] it was 0.008 µg/mL (≈ 0.00844 µM). Also, the result in assay [20] was Active.

In the case of `C=CCN(C)[C@H]1C[C@@H](C)O[C@@H](O[C@@H]2[C@@H](C)[C@H](OC(=O)Cc3cccnc3)[C@@H](C)C(=O)O[C@H](CC)[C@@]3(C)OC(=O)N(CCCCn4cnc(-c5ccc(N)nc5)c4)[C@@H]3[C@@H](C)C(=O)[C@H](C)C[C@@]2(C)OC)[C@@H]1O`, the MIC was 0.125 µg/mL (≈ 0.128 µM) in assay [2]; 0.125 µg/mL (≈ 0.128 µM) in assay [3]; 0.06 µg/mL (≈ 0.0616 µM) in assay [4]; 0.125 µg/mL (≈ 0.128 µM) in [5]; 0.06 µg/mL (≈ 0.0616 µM) in [6]; 0.125 µg/mL (≈ 0.128 µM) in assay [7]. In [8], this molecule returned an MIC of 0.06 µg/mL (≈ 0.0616 µM).

For `C=CCN(C)[C@H]1C[C@@H](C)O[C@@H](O[C@@H]2[C@@H](C)[C@H](OC(=O)Cc3ccccn3)[C@@H](C)C(=O)O[C@H](CC)[C@@]3(C)OC(=O)N(CCCCn4cnc(-c5ccoc5)c4)[C@@H]3[C@@H](C)C(=O)[C@H](C)C[C@@]2(C)OC)[C@@H]1O`, the MIC was found to be 0.125 µg/mL (≈ 0.132 µM) in assay [2]; 0.125 µg/mL (≈ 0.132 µM) in assay [3]; 0.06 µg/mL (≈ 0.0633 µM) in assay [4]; 0.25 µg/mL (≈ 0.264 µM) in assay [5]; 0.125 µg/mL (≈ 0.132 µM) in assay [6]; 0.015 µg/mL (≈ 0.0158 µM) in [7]. Besides, the MIC in assay [8] was found to be 0.06 µg/mL (≈ 0.0633 µM).

Turning to `CC[C@H]1OC(=O)[C@H](C)[C@@H](OC(=O)Cc2cccnc2)[C@H](C)[C@@H](O[C@@H]2O[C@H](C)C[C@H](N(C)CC)[C@H]2O)[C@](C)(OC)C[C@@H](C)C(=O)[C@H](C)[C@H]2N(CCCCn3cnc(-c4ccc(N)nc4)c3)C(=O)O[C@]12C`, the MIC in assay [2] stood at 0.25 µg/mL (≈ 0.26 µM); in assay [3], 0.125 µg/mL (≈ 0.13 µM); in assay [4] it was 0.03 µg/mL (≈ 0.0312 µM); in [5], 0.125 µg/mL (≈ 0.13 µM); in assay [6] it was 0.125 µg/mL (≈ 0.13 µM); in assay [7], 0.06 µg/mL (≈ 0.0624 µM). Moreover, the MIC in assay [8] amounted to 0.06 µg/mL (≈ 0.0624 µM).

`C=CCN(C)[C@H]1C[C@@H](C)O[C@@H](O[C@@H]2[C@@H](C)[C@H](OC(=O)Cc3ccccn3)[C@@H](C)C(=O)O[C@H](CC)[C@@]3(C)OC(=O)N(CCCCn4cnc5cnccc54)[C@@H]3[C@@H](C)C(=O)[C@H](C)C[C@@]2(C)OC)[C@@H]1O`: the MIC in assay [2] was 0.25 µg/mL (≈ 0.268 µM); in assay [3], 0.06 µg/mL (≈ 0.0643 µM); in assay [4] it was 0.03 µg/mL (≈ 0.0321 µM); in [5], under 0.06 µg/mL; in assay [6], 0.25 µg/mL (≈ 0.268 µM); in [7] it was 0.03 µg/mL (≈ 0.0321 µM). The MIC in assay [8] was 0.06 µg/mL (≈ 0.0643 µM).

In the case of `C=CCN(C)[C@H]1C[C@@H](C)O[C@@H](O[C@@H]2[C@@H](C)[C@H](OC(=O)Cc3ccccn3)[C@@H](C)C(=O)O[C@H](CC)[C@@]3(C)OC(=O)N(CCCCn4cnc5c(N)ncnc54)[C@@H]3[C@@H](C)C(=O)[C@H](C)C[C@@]2(C)OC)[C@@H]1O`, the MIC in assay [2] was found to be 0.5 µg/mL (≈ 0.527 µM); in assay [3], 0.125 µg/mL (≈ 0.132 µM); in assay [4] it was 0.03 µg/mL (≈ 0.0316 µM); in assay [5], 0.125 µg/mL (≈ 0.132 µM); in assay [6] it was 0.125 µg/mL (≈ 0.132 µM); in [7] it was 0.06 µg/mL (≈ 0.0632 µM). Moreover, the MIC in assay [8] was 0.125 µg/mL (≈ 0.132 µM).

The record behind these values is ChEMBL document CHEMBL1933046, “Synthesis and antibacterial activity of a novel series of acylides active against community acquired respiratory pathogens” (2012).
